# The source made the active and inactive calls. No rule for the calls is given here.
# System: CCRIS mutagenicity, Ames/micronucleus/aberration tests
# Test: CCRIS mutagenicity studies
# [1] = Test System: AMES SALMONELLA TYPHIMURIUM, Strain/Indicator: TA98, Metabolic Activation: NONE, Method: STANDARD PLATE
# [2] = Test System: AMES SALMONELLA TYPHIMURIUM, Strain/Indicator: TA98, Metabolic Activation: RAT, LIVER, S-9, AROCLOR 1254, Method: STANDARD PLATE
# [3] = Test System: AMES SALMONELLA TYPHIMURIUM, Strain/Indicator: TA100, Metabolic Activation: NONE, Method: STANDARD PLATE
# [4] = Test System: AMES SALMONELLA TYPHIMURIUM, Strain/Indicator: TA1535, Metabolic Activation: NONE, Method: STANDARD PLATE
# [5] = Test System: AMES SALMONELLA TYPHIMURIUM, Strain/Indicator: TA98, Metabolic Activation: NONE, Method: PREINCUBATION
# [6] = Test System: AMES SALMONELLA TYPHIMURIUM, Strain/Indicator: TA100, Metabolic Activation: NONE, Method: PREINCUBATION
# [7] = Test System: AMES SALMONELLA TYPHIMURIUM, Strain/Indicator: TA98, Metabolic Activation: RAT, LIVER, S-9, AROCLOR 1254 (10%), Method: PREINCUBATION
# [8] = Test System: AMES SALMONELLA TYPHIMURIUM, Strain/Indicator: TA100, Metabolic Activation: RAT, LIVER, S-9, AROCLOR 1254 (10%), Method: PREINCUBATION
compound,measurement,setting,value
O=[N+]([O-])c1ccc2c3c4c(cccc4c4ccccc4c13)C1OC21 (stereo unspecified),mutagenic call,"Test System: AMES SALMONELLA TYPHIMURIUM, Strain/Indicator: TA98(1,8-DNP6), Metabolic Activation: NONE, Method: STANDARD PLATE",inactive; negative
same,mutagenic call,"Test System: AMES SALMONELLA TYPHIMURIUM, Strain/Indicator: TA98(1,8-DNP6), Metabolic Activation: RAT, LIVER, S-9, AROCLOR 1254, Method: STANDARD PLATE",inactive; negative
same,mutagenic call,"Test System: AMES SALMONELLA TYPHIMURIUM, Strain/Indicator: TA98(NR), Metabolic Activation: NONE, Method: STANDARD PLATE",inactive; negative
same,mutagenic call,"Test System: AMES SALMONELLA TYPHIMURIUM, Strain/Indicator: TA98(NR), Metabolic Activation: RAT, LIVER, S-9, AROCLOR 1254, Method: STANDARD PLATE",inactive; negative
same,mutagenic call,[1],active; positive
same,mutagenic call,[2],active; positive
CC1(C)C2CCC3(CO3)C1C2 (stereo unspecified),mutagenic call,[3],inactive; negative
same,mutagenic call,[4],inactive; negative
O=[N+]([O-])c1ccc2c(c1)nc(/C=N/OCc1ccccc1[N+](=O)[O-])n2Cc1ccccc1,mutagenic call,[1],active; positive
same,mutagenic call,"Test System: AMES SALMONELLA TYPHIMURIUM, Strain/Indicator: TA98, Metabolic Activation: RAT, LIVER, S-9, PHENOBARBITAL AND BETA-NAPHTHOFLAVONE, Method: STANDARD PLATE",active; positive
same,mutagenic call,[3],active; positive
same,mutagenic call,"Test System: AMES SALMONELLA TYPHIMURIUM, Strain/Indicator: TA100, Metabolic Activation: RAT, LIVER, S-9, PHENOBARBITAL AND BETA-NAPHTHOFLAVONE, Method: STANDARD PLATE",active; positive
COP(=S)(OC)Oc1ccc([N+](=O)[O-])c(C)c1,mutagenic call,"End Point: IN VIVO MICRONUCLEUS, Test System: BONE MARROW POLYCHROMATIC ERYTHROCYTES, Species: MOUSE, Strain/Sex: DDY/MALE, Route: IP",inactive; negative
same,mutagenic call,[5],inactive; negative
same,mutagenic call,[1],inactive; negative
same,mutagenic call,"Test System: AMES SALMONELLA TYPHIMURIUM, Strain/Indicator: TA98, Metabolic Activation: RAT LIVER S-9 (10%), Method: PREINCUBATION",inactive; negative
same,mutagenic call,[2],inactive; negative
same,mutagenic call,"Test System: AMES SALMONELLA TYPHIMURIUM, Strain/Indicator: TA98, Metabolic Activation: S-9, NADPH GENERATING SYSTEM, Method: STANDARD PLATE",inactive; negative
same,mutagenic call,[6],inactive; negative
same,mutagenic call,[3],inactive; negative
same,mutagenic call,"Test System: AMES SALMONELLA TYPHIMURIUM, Strain/Indicator: TA100, Metabolic Activation: RAT LIVER S-9 (10%), Method: PREINCUBATION",inactive; negative
same,mutagenic call,"Test System: AMES SALMONELLA TYPHIMURIUM, Strain/Indicator: TA100, Metabolic Activation: RAT, LIVER, S-9, AROCLOR 1254, Method: STANDARD PLATE",inactive; negative
same,mutagenic call,"Test System: AMES SALMONELLA TYPHIMURIUM, Strain/Indicator: TA100, Metabolic Activation: S-9 MIX, Method: STANDARD PLATE",active; positive
same,mutagenic call,"Test System: AMES SALMONELLA TYPHIMURIUM, Strain/Indicator: TA102, Metabolic Activation: NONE, Method: STANDARD PLATE",inactive; negative
same,mutagenic call,"Test System: AMES SALMONELLA TYPHIMURIUM, Strain/Indicator: TA102, Metabolic Activation: S-9, NADPH GENERATING SYSTEM, Method: STANDARD PLATE",inactive; negative
same,mutagenic call,[4],inactive; negative
same,mutagenic call,"Test System: AMES SALMONELLA TYPHIMURIUM, Strain/Indicator: TA1535, Metabolic Activation: S-9, NADPH GENERATING SYSTEM, Method: STANDARD PLATE",inactive; negative
same,mutagenic call,"Test System: AMES SALMONELLA TYPHIMURIUM, Strain/Indicator: TA1537, Metabolic Activation: NONE, Method: STANDARD PLATE",inactive; negative
same,mutagenic call,"Test System: AMES SALMONELLA TYPHIMURIUM, Strain/Indicator: TA1537, Metabolic Activation: S-9, NADPH GENERATING SYSTEM, Method: STANDARD PLATE",inactive; negative
same,mutagenic call,"Test System: AMES SALMONELLA TYPHIMURIUM, Strain/Indicator: YG1021, Metabolic Activation: NONE, Method: PREINCUBATION",inactive; negative
same,mutagenic call,"Test System: AMES SALMONELLA TYPHIMURIUM, Strain/Indicator: YG1021, Metabolic Activation: RAT LIVER S-9 (10%), Method: PREINCUBATION",inactive; negative
same,mutagenic call,"Test System: AMES SALMONELLA TYPHIMURIUM, Strain/Indicator: YG1024, Metabolic Activation: NONE, Method: PREINCUBATION",inactive; negative
same,mutagenic call,"Test System: AMES SALMONELLA TYPHIMURIUM, Strain/Indicator: YG1024, Metabolic Activation: RAT LIVER S-9 (10%), Method: PREINCUBATION",inactive; negative
same,mutagenic call,"Test System: AMES SALMONELLA TYPHIMURIUM, Strain/Indicator: YG1026, Metabolic Activation: NONE, Method: PREINCUBATION",active; positive
same,mutagenic call,"Test System: AMES SALMONELLA TYPHIMURIUM, Strain/Indicator: YG1026, Metabolic Activation: RAT LIVER S-9 (10%), Method: PREINCUBATION",active; positive
same,mutagenic call,"Test System: AMES SALMONELLA TYPHIMURIUM, Strain/Indicator: YG1029, Metabolic Activation: NONE, Method: PREINCUBATION",active; positive
same,mutagenic call,"Test System: AMES SALMONELLA TYPHIMURIUM, Strain/Indicator: YG1029, Metabolic Activation: RAT LIVER S-9 (10%), Method: PREINCUBATION",active; positive
same,mutagenic call,"Test System: AMES SALMONELLA TYPHIMURIUM, Strain/Indicator: YG1041, Metabolic Activation: NONE, Method: PREINCUBATION",active; positive
same,mutagenic call,"Test System: AMES SALMONELLA TYPHIMURIUM, Strain/Indicator: YG1041, Metabolic Activation: RAT LIVER S-9 (10%), Method: PREINCUBATION",active; positive
same,mutagenic call,"Test System: AMES SALMONELLA TYPHIMURIUM, Strain/Indicator: YG1042, Metabolic Activation: NONE, Method: PREINCUBATION",active; positive
same,mutagenic call,"Test System: AMES SALMONELLA TYPHIMURIUM, Strain/Indicator: YG1042, Metabolic Activation: RAT LIVER S-9 (10%), Method: PREINCUBATION",active; positive
O=c1c2[nH]c3ccccc3c2nnn1/N=C/c1ccc([N+](=O)[O-])cc1,mutagenic call,"Test System: AMES SALMONELLA TYPHIMURIUM, Strain/Indicator: TA97, Metabolic Activation: NONE, Method: PREINCUBATION",active; positive
same,mutagenic call,"Test System: AMES SALMONELLA TYPHIMURIUM, Strain/Indicator: TA97, Metabolic Activation: RAT, LIVER, S-9, AROCLOR 1254 (10%), Method: PREINCUBATION",active; positive
same,mutagenic call,[5],active; positive
same,mutagenic call,[7],active; positive
same,mutagenic call,[6],active; positive
same,mutagenic call,[8],active; positive
same,mutagenic call,"Test System: AMES SALMONELLA TYPHIMURIUM, Strain/Indicator: TA102, Metabolic Activation: NONE, Method: PREINCUBATION",inactive; negative
same,mutagenic call,"Test System: AMES SALMONELLA TYPHIMURIUM, Strain/Indicator: TA102, Metabolic Activation: RAT, LIVER, S-9, AROCLOR 1254 (10%), Method: PREINCUBATION",inactive; negative
COc1ccc(C(=O)c2ccccc2O)c(O)c1,mutagenic call,"Test System: AMES SALMONELLA TYPHIMURIUM, Strain/Indicator: TA98, Metabolic Activation: HAMSTER, LIVER, S-9, AROCLOR 1254 (10%), Method: PREINCUBATION",inactive; negative
same,mutagenic call,[5],inactive; negative
same,mutagenic call,[7],inactive; negative
same,mutagenic call,"Test System: AMES SALMONELLA TYPHIMURIUM, Strain/Indicator: TA100, Metabolic Activation: HAMSTER, LIVER, S-9, AROCLOR 1254 (10%), Method: PREINCUBATION",inactive; negative
same,mutagenic call,[6],inactive; negative
same,mutagenic call,[8],inactive; negative
same,mutagenic call,"Test System: AMES SALMONELLA TYPHIMURIUM, Strain/Indicator: TA1535, Metabolic Activation: HAMSTER, LIVER, S-9, AROCLOR 1254 (10%), Method: PREINCUBATION",inactive; negative
same,mutagenic call,"Test System: AMES SALMONELLA TYPHIMURIUM, Strain/Indicator: TA1535, Metabolic Activation: NONE, Method: PREINCUBATION",inactive; negative
same,mutagenic call,"Test System: AMES SALMONELLA TYPHIMURIUM, Strain/Indicator: TA1535, Metabolic Activation: RAT, LIVER, S-9, AROCLOR 1254 (10%), Method: PREINCUBATION",inactive; negative
same,mutagenic call,"Test System: AMES SALMONELLA TYPHIMURIUM, Strain/Indicator: TA1537, Metabolic Activation: HAMSTER, LIVER, S-9, AROCLOR 1254 (10%), Method: PREINCUBATION",active; positive
same,mutagenic call,"Test System: AMES SALMONELLA TYPHIMURIUM, Strain/Indicator: TA1537, Metabolic Activation: NONE, Method: PREINCUBATION",inactive; negative
same,mutagenic call,"Test System: AMES SALMONELLA TYPHIMURIUM, Strain/Indicator: TA1537, Metabolic Activation: RAT, LIVER, S-9, AROCLOR 1254 (10%), Method: PREINCUBATION",active; positive

# From PubChem BioAssay AID1259407 (Chemical Carcinogenesis Research Information System (CCRIS), 2018)
